The values below come from US12503475B2 (Centessa Pharmaceuticals (UK) Limited, priority 2020, dated 2025).

In experiment [1] the test system is wild type (WT) colony mates. The experiment in a line: Wake promoting efficacy, piezoelectric sleep/wake monitoring, wild type mice. In kind it is in vivo, mouse. To be noted: oral dose 30 mg/kg, dosed 5 h after light onset. An excerpt: (§1) Wake-promoting efficacy of the compounds of the present disclosure may be evaluated in a model (e.g., the B6.Cg-Tg(HCRT-MJD)1Stak/J (Atax) mouse model of NT1 and wild type (WT) colony mates). The model (e.g., mouse model) may be monitored for rapid, non-invasive classification of sleep and wakefulness by unsupervised machine learning on physiologically relevant readouts, such as body movement and breath rate, after dosing of a compound of the present disclosure (e.g., oral dosing).
(§2) Wake-promoting efficacy was evaluated in the B6.Cg-Tg(HCRT-MJD)1Stak/J (Atax) mouse model of NT1 and wild type (WT) colony mates. Mice were monitored in home cages using piezoelectric sensors for rapid, non-invasive classification of sleep and wakefulness by unsupervised machine learning on physiologically relevant readouts, such as body movement and breath rate. Piezoelectric detection is highly correlated with conventional time-intensive electroencephalogram/electromyography measures of sleep/wake states in both WT and NT1 mice. In a counterbalanced design, mice were orally dosed at 5 h after light onset with test articles at 0 (vehicle), 3 and 30 mg/kg.

For experiment [2], the system named is B6.Cg-Tg(HCRT-MJD)1Stak/J (Atax) mouse model of NT1. Briefly: Wake promoting efficacy, piezoelectric sleep/wake monitoring, Atax mice. Format: in vivo. To be noted: dosed 5 h after light onset.
From the text: as §1, §2

The target in experiment [3] is T1, human orexin type 2 receptor (hOX2R) (Homo sapiens, UniProt O43614).
T1 construct: expressed in transfected cells
T1 sequence (O43614 1-444): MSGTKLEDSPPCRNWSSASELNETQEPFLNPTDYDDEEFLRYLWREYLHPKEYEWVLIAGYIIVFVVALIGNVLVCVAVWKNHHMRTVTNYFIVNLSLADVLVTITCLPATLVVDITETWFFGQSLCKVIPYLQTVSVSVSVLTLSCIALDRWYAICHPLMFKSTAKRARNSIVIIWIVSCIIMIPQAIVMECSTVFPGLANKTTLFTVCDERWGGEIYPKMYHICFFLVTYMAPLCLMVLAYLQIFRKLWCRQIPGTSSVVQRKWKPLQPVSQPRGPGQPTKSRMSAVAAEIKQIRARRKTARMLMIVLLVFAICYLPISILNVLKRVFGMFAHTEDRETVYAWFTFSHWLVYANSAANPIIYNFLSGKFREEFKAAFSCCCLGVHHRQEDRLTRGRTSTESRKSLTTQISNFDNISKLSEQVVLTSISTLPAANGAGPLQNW
Briefly: Measurement of orexin type 2 receptor agonist activity (FLIPR calcium fluorescence). In kind it is cell-based. To be noted: CHO cells expressing hOX2R, FLIPR calcium fluorescence; for EC50: read-out: hOx2 pEC50 (converted); for Emax: CHO, read-out: hOx2 Emax (%). An outline of the steps:
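Agonism was read as fluorescence in cells stably expressing human OX2R. E. is the response at 10 μM relative to orexin A as full agonist (100%).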

Another experiment has as its system mouse models. To be noted: cited from earlier work.
In a further experiment the test system is individuals with NT1. To be noted: cited from earlier work.

Read-outs that look alike come from different tables or passages of the source.

On to `CS(=O)(=O)N[C@@H]1[C@H](Cc2cccc(-c3ccccc3)c2F)N(C(=O)[C@H]2CCO2)CC12CC2` (single isomer, unassigned) [Example 21], for which the entries for the “Wake % time 1 h post dose (increase from vehicle)” value in experiment [1], in experiment [2] (oral dose 3 mg/kg) and in experiment [2] (oral dose 30 mg/kg) were 14.4%, 17.5% and 27.9%, respectively.
In the case of `CCS(=O)(=O)N[C@@H]1[C@H](Cc2cccc(-c3cccc(F)c3)c2F)N(C(=O)[C@H]2CCO2)CC12CC2` [Compound 129, N-((6S,7S)-6-((2,3′-difluoro-[1,1′-biphenyl]-3-yl)methyl)-5-((R)-oxetane-2-carbonyl)-5-azaspiro[2.4]heptan-7-yl)ethanesulfonamide], the “Wake % time 1 h post dose (increase from vehicle)” value in experiment [1] turned out to be 19.3%. Further, in experiment [3], the EC50 is 0.0794 to 1 nM and the Emax (as a rule, the greatest response seen or fitted, relative to the assay's reference) was in the range of 90 to 100%. The “Wake % time 1 h post dose (increase from vehicle)” value in experiment [2] (oral dose 30 mg/kg) came out at 25.0%.
Regarding `O=C([C@H]1CCO1)N1CC2(CC2)[C@H](NS(=O)(=O)C(F)F)[C@@H]1Cc1cccc(-c2ccccc2)c1F` [Compound 144, 1,1-difluoro-N-((6S,7S)-6-((2-fluoro-[1,1′-biphenyl]-3-yl)methyl)-5-((R)-oxetane-2-carbonyl)-5-azaspiro[2.4]heptan-7-yl)methanesulfonamide], the “Wake % time 1 h post dose (increase from vehicle)” value in experiment [1] stood at 27.2%; in experiment [2] (oral dose 3 mg/kg), 26.7%; in experiment [2] (oral dose 30 mg/kg), 29.2%. Moreover, the EC50 in experiment [3] was 0.0794 to 1 nM. The Emax in experiment [3] is 90 to 100%.
With `O=C([C@H]1CCO1)N1CC2(CC2)[C@H](NS(=O)(=O)CF)[C@@H]1Cc1cc(F)cc(-c2ccccc2)c1F` [Compound 145, N-((6S,7S)-6-((2,5-difluoro-[1,1′-biphenyl]-3-yl)methyl)-5-((R)-oxetane-2-carbonyl)-5-azaspiro[2.4]heptan-7-yl)-1-fluoromethanesulfonamide], the “Wake % time 1 h post dose (increase from vehicle)” value turned out to be 25.8% in experiment [1] (30 mg/kg); 21.1% in experiment [1] (listed as 59, 30 mg/kg); 26.9% in experiment [2] (oral dose 3 mg/kg, 3 mg/kg); 35.5% in experiment [2] (oral dose 3 mg/kg, listed as 59, 3 mg/kg); 28.3% in experiment [2] (oral dose 30 mg/kg, 30 mg/kg); 48.6% in experiment [2] (oral dose 30 mg/kg, listed as 59, 30 mg/kg). Besides, the EC50 in experiment [3] was 0.0794 to 1 nM. Besides, the maximum response (Emax) in experiment [3] lay in the range of 90 to 100%.
Regarding `O=C([C@H]1CCO1)N1CC2(CC2)[C@H](NS(=O)(=O)C(F)F)[C@@H]1Cc1cccc(-c2cccc(F)c2)c1F` [Compound 154, N-((6S,7S)-6-((2,3′-difluoro-[1,1′-biphenyl]-3-yl)methyl)-5-((R)-oxetane-2-carbonyl)-5-azaspiro[2.4]heptan-7-yl)-1,1-difluoromethanesulfonamide], in experiment [3], the EC50 was 0.0794 to 1 nM and the Emax lay within 90 to 100%. Moreover, the “Wake % time 1 h post dose (increase from vehicle)” value in experiment [2] (oral dose 3 mg/kg) is recorded as 24.4%. Also, the “Wake % time 1 h post dose (increase from vehicle)” value in experiment [2] (oral dose 30 mg/kg) was determined as 24.5%.
As for `O=C([C@H]1CCO1)N1CC2(CC2)[C@H](NS(=O)(=O)C(F)F)[C@@H]1Cc1cccc(-c2cc(F)cc(F)c2)c1F` [Compound 175], in experiment [3], the EC50 is 0.0794 to 1 nM and the Emax lay in the range of 90 to 100%. Moreover, the “Wake % time 1 h post dose (increase from vehicle)” value in experiment [2] (oral dose 3 mg/kg) was determined as 25.3%. Besides, the “Wake % time 1 h post dose (increase from vehicle)” value in experiment [2] (oral dose 30 mg/kg) is reported as 29%.
In the case of `CC(C)(O)C(=O)N1CC2(CC2)[C@H](NS(=O)(=O)CF)[C@@H]1Cc1cc(F)cc(-c2cc(F)cc(F)c2)c1F` [Compound 419, 1-fluoro-N-((6S,7S)-5-(2-hydroxy-2-methylpropanoyl)-6-((2,3′,5,5′-tetrafluoro-[1,1′-biphenyl]-3-yl)methyl)-5-azaspiro[2.4]heptan-7-yl)methanesulfonamide], in experiment [3], the EC50 is 1 to 10 nM and the Emax fell in the range of 90 to 100%.
In the same order, the values of `O=C([C@H]1CCO1)N1CC2(CC2)[C@H](NS(=O)(=O)C2(F)CC2)[C@@H]1Cc1cccc(-c2ccccc2)c1F` [Compound 420, 1-fluoro-N-((6S,7S)-6-((2-fluoro-[1,1′-biphenyl]-3-yl)methyl)-5-((R)-oxetane-2-carbonyl)-5-azaspiro[2.4]heptan-7-yl)cyclopropane-1-sulfonamide] are 0.0794 to 1 nM and 90 to 100%.
On to `COC(=O)N1CCC[C@H](NS(C)(=O)=O)[C@@H]1CO[C@H]1CC[C@@H](c2ccccc2)CC1` [TAK-925], for which the wakefulness entry with mouse models (subcutaneous, WT mice) is given as “modestly increased wakefulness”. Further, in the experiment with individuals with NT1, the cataplexy result is given as “trends for decreasing cataplexy” and the wakefulness result is reported as “substantial levels of increased wakefulness”.
In the case of `COc1ccc(-c2cccc(C(=O)N(C)C)c2)cc1S(=O)(=O)Nc1cccc(NCCNC(=O)c2ccccc2N(C)C)c1` [YNT-185], the “sleep-onset REM periods and cataplexy-like events” value with mouse models (NT1 mouse model) was “decrease sleep-onset REM periods and cataplexy-like events”. The wakefulness entry with mouse models (intraperitoneally or ICV, wild type (WT) and orexin ligand-deficient mice) is “modestly increases wakefulness”.
In the case of “(6S,7S)-6-(2,5-difluoro-[1,1′- biphenyl]-3-yl)methyl)-7- ((difluoromethyl)sulfonamido)- N-((S)-1-fluoroethyl)-5- azaspiro[2.4]heptane-5- carboxamide [Compound 216]”, in experiment [3], the “hOx2 Emax (%)” value was “A (Emax ranging between 90 and 100)”; the “hOx2 pEC50” value was “**** (pEC50 ranging between 8.0 and 9.0)”.
Take “N-((6S,7S)-6-((2-fluoro-[1,1′- biphenyl]-3-yl)methyl)-5-((R)- 2-(fluoromethyl)azetidine-1- carbonyl)-5- azaspiro[2.4]heptan-7- yl)metbanesulfonamide [Compound 314]”: in experiment [3], the “hOx2 Emax (%)” value is “A (Emax ranging between 90 and 100)”; the “hOx2 pEC50” value is “**** (pEC50 ranging between 8.0 and 9.0)”.
